Reference: patent US6323193A, “Bioavailable oral dosage form of cefuroxime axetil” (Ranbaxy Laboratories Limited, priority 1999, dated 2001)
Read-outs that look alike come from different tables or passages of the source.

How the values were obtained:
[1] = test system: gram-positive and gram-negative microorganisms; conditions: cited from earlier work
[2] = oral administration, cited from earlier work
[3] = cited from earlier work
[4] = Behaviour of amorphous cefuroxime axetil in contact with water (conversion to crystalline form, gel formation); format: physicochemical; conditions: formulation with sodium salt of citric acid

CO/N=C(\C(=O)N[C@@H]1C(=O)N2C(C(=O)OC(C)OC(C)=O)=C(COC(N)=O)CS[C@H]12)c1ccco1 (stereo partly shown) [Cefuroxime axetil, 1-acetoxyethyl ester of cefuroxime]
spectrum of activity [1]: broad spectrum of activity

CO/N=C(\C(=O)N[C@@H]1C(=O)N2C(C(=O)OC(C)OC(C)=O)=C(COC(N)=O)CS[C@H]12)c1ccco1 (stereo partly shown) [Crystalline cefuroxime axetil]
bioavailability [2]: does not exhibit adequate bioavailability

CO/N=C(\C(=O)N[C@@H]1C(=O)N2C(C(=O)OC(C)OC(C)=O)=C(COC(N)=O)CS[C@H]12)c1ccco1 (stereo partly shown) [amorphous cefuroxime axetil]
gel formation ([3]; contact with water): forms a gel which prolongs the disintegration and retards the dissolution
conversion to the crystalline form ([3]; upon contact with water): gets converted to the crystalline form
bioavailability ([2]; listed as amorphous form of cefuroxime axetil): high bioavailability
bioavailability ([2]; listed as highly pure amorphous cefuroxime axetil): higher bioavailability than crystalline cefuroxime axetil
tendency to form a gel on addition of a sodium salt of citric acid [4]: inhibits the tendency of amorphous cefuroxime axetil to form a gel
